From paper PMC4626032, “The YHS-Domain of an Adenylyl Cyclase from Mycobacterium phlei Is a Probable Copper-Sensor Module” (PLoS ONE, 2015)

Experiments:
MpAC1-233 = test system: T1, MpAC1-233; experiment: cAMP formation determined by HPLC; assay type: biochemical, Mycolicibacterium phlei; details: 5 mM Mn2+, no Cu2+, pH 8.0, 30 °C; Hill coefficient 0.9 ± 0.1; read-out: SC50 [mM ATP]
T1 construct: gene MpAC; full length, residues 1-233 (CHD plus C-terminal YHS domain); His-TEV tag removed, N-terminal GS dipeptide remains; codon-optimized gene in E. coli BL21(DE3)[pRep4]
From the text: cAMP formation determined by HPLC on MpAC1-233

MpAC1-182 = test system: T2, MpAC1-182; experiment: cAMP formation determined by HPLC; assay type: biochemical, Mycolicibacterium phlei; details: 5 mM Mn2+, no Cu2+, pH 8.0, 30 °C; Hill coefficient 1.5 ± 0.2; read-out: SC50 [mM ATP]
T2 construct: gene MpAC; isolated catalytic domain (CHD), residues 1-182 of 233, YHS domain removed; N-terminal MRGSH6GS tag kept, C-terminal extra Ala; codon-optimized gene in E. coli BL21(DE3)[pRep4]; class III ACs act as head-to-tail dimers
From the text: cAMP formation determined by HPLC on MpAC1-182

[1] = molecular target: full-length Mycobacterium phlei adenylyl cyclase, untagged MpAC_(1-233) (Mycobacterium phlei); experiment: protein dependence of adenylyl cyclase activity; dimer to monomers; dissociation constant calculated from the protein dependance of the AC activity; data not shown

| Compound | Km (MpAC1-233) [mM] | Km (MpAC1-182) [mM] | Kd [1] [µM] |
| --- | --- | --- | --- |
| Nc1ncnc2c1ncn2[C@@H]1O[C@H](COP(=O)(O)OP(=O)(O)OP(=O)(O)O)[C@@H](O)[C@H]1O [ATP] | 2.11 ± 0.54 | 0.9 ± 0.22 | – |
| full-length Mycobacterium phlei adenylyl cyclase, untagged MpAC_(1-233) (enzyme) | – | – | 0.16 |
